The source of these data is patent publication US6864217B2, “Herbicidal compositions with substituted phenylsulfonylureas for controlling weeds in rice” (Hoechst Schering AgrEvo GmbH, priority 1998, dated 2005).

Data set [1] deals with Cyperus serotinus. Put plainly: Table 19 field trial, treatment at the 2 leaf stage: weed control. To be noted: 14 days after application. The format is in vivo. From the text:
(§1) Field trial: Treatment at the 2 leaf stage, evaluation 14 days after the application.

Data set [2] deals with Oryza sativa. Put plainly: Table 19 field trial, treatment at the 2 leaf stage: rice damage. The format is in vivo. To be noted: 14 days after application.
Description: as §1

The next data set has as its system Ipomoea hederacea. Put plainly: Table 20 field trial, treatment at the 4-6 leaf stage: weed control. In kind it is in vivo. Particulars: 28 days after application. From the text:
(§2) Field trial: Treatment at the 4-6 leaf stage, evaluation 28 days after the application.

Data set [3] has as its system Oryza sativa. Description: Table 20 field trial, treatment at the 4-6 leaf stage: rice damage. In kind it is in vivo. Particulars: 28 days after application.
Description: as §2

The test system of data set [4] is Echinochloa crusgalli. Description: Table 4 field trial: weed control. In kind it is in vivo.
Description: (§8) The examples mentioned below were carried out in the greenhouse, and in some instances, in field trials.
Data set [5] deals with Echinochloa crusgalli. Put plainly: Table 18 field trial, treatment at the 1-2 leaf stage: weed control. Particulars: 14 days after application. The format is in vivo. From the text: (§3) Field trial: Treatment at the 1-2 leaf stage, evaluation 14 days after the application.
For data set [6], the system named is Oryza sativa. Put plainly: Table 18 field trial, treatment at the 1-2 leaf stage: rice damage. In kind it is in vivo. To be noted: 14 days after application.
Description: as §3

For data set [7], the system named is Oryza sativa. Put plainly: Table 4 field trial: rice damage.
Description: as §8
The test system of a further data set is Polygonum convolvulus. Description: Table 25 field trial, treatment at the 3 leaf stage: weed control. The format is in vivo. To be noted: 33 days after application. The text has this:
(§4) Field trial: Treatment at the 3 leaf stage, evaluation 33 days after the application.

Data set [8] deals with Oryza sativa. Put plainly: Table 25 field trial, treatment at the 3 leaf stage: rice damage. The format is in vivo. To be noted: 33 days after application.
Description: as §4

In another data set the test system is Commelina benghalensis. Description: Table 26 field trial, treatment at the 3 leaf stage: weed control. The format is in vivo. Particulars: 33 days after application.
Description: as §4

In data set [9] the test system is Oryza sativa. Put plainly: Table 26 field trial, treatment at the 3 leaf stage: rice damage. In kind it is in vivo. To be noted: 33 days after application.
Description: as §4

Data set [10] concerns Cyperus serotinus. Description: Table 21 field trial, treatment at the 2 leaf stage: weed control. The format is in vivo. Particulars: 28 days after application. From the text: (§5) Field trial: Treatment at the 2 leaf stage, evaluation 28 days after the application.
The subject of data set [11] is Oryza sativa. Put plainly: Table 21 field trial, treatment at the 2 leaf stage: rice damage. In kind it is in vivo.
Description: as §5

The subject of data set [12] is Cyperus serotinus. Description: Table 12 greenhouse trial, treatment at the 1-2 leaf stage: weed control. The format is in vivo. Particulars: 20 days after application. How it is done: (§6) Seeds or rhizome pieces of mono- and dicotyledonous weed plants are placed into sandy loam soil in plastic pots, covered with soil and grown in a greenhouse under good growth conditions (temperature, atmospheric humidity, water supply). Weeds which are encountered in the cultivation of rice are cultivated in pots in which the water level is up to 2 cm over the soil surface. Three weeks after sowing, the test plants are treated at the three-leaf stage. The active compound combinations according to the invention, formulated as wettable powders or emulsion concentrates, and, in parallel experiments, the correspondingly formulated individual active compounds are sprayed onto the green parts of the plants at different dosages using an amount of water of 300 to 600 l/ha (converted), and, after about 3 to 4 weeks of the test plants in the greenhouse under optimum growth conditions (temperature, atmospheric humidity, water supply), the effect of the preparations is evaluated visually in comparison to untreated controls. In the case of rice or weeds which are encountered in the cultivation of rice, the active compounds are also added directly to the water for irrigation (application analogous to the so-called granules application) or sprayed onto plants and added to the water for irrigation. The experiments were designed with several, up to five, repetitions. The herbicidal compositions according to the invention also have good herbicidal post-emergence activity against a broad spectrum of economically important weed grasses and broad-leaved weeds.
(§7) Greenhouse trial: Treatment at the 1-2 leaf stage, evaluation 20 days after the application.

Data set [13] relates to Oryza sativa. Description: Table 12 greenhouse trial, treatment at the 1-2 leaf stage: rice damage. In kind it is in vivo. Particulars: greenhouse trial, 20 days after application. How it is done:
as §6, §7

A further data set concerns Sagittaria pygmaea. Put plainly: Table 22 field trial, treatment: 1-2 leaf stage: weed control. To be noted: 28 days after application. In kind it is in vivo. The text has this:
Field trial: Treatment: 1-2 leaf stage, evaluation 28 days after the application.

The next data set has as its system ECHCO. Put plainly: Table 2 field trial, treatment at the 2-3 leaf stage weed grasses: weed control. The format is in vivo, Echinochloa colona. To be noted: 28 days after application.
A further data set relates to Eleusine indica. Described as above. In kind it is in vivo. To be noted: 28 days after application.
For a further data set, the system named is Leptochloa filiformis. Put plainly: Table 2a field trial, treatment at the 2-3 leaf stage weed grasses: weed control. In kind it is in vivo. To be noted: 28 days after application.
Another data set has as its system Cyperus irria. Put plainly: Table 3 field trial, treatment at the 2 leaf stage weed grasses: weed control. In kind it is in vivo. To be noted: 28 days after application.
The subject of data set [14] is Oryza sativa. Put plainly: Table 2 field trial, treatment at the 1-2 leaf stage rice: rice damage. Particulars: 28 days after application.
Description: as §8
Data set [15] deals with Oryza sativa. Description: Table 2a field trial, treatment at the 1-2 leaf stage rice: rice damage. To be noted: 28 days after application.
Description: as §8
In data set [16] the test system is Oryza sativa. Put plainly: Table 3 field trial, treatment at the 4-5 leaf stage (seed rice): rice damage. To be noted: 28 days after application.
Description: as §8

Description for Cyperus irria: as §8
Description for ECHCO: as §8
Description for Eleusine indica: as §8
Description for Leptochloa filiformis: as §8

`CC(C)=C1OC(=O)N(c2cc(OC3CCCC3)c(Cl)cc2F)C1=O` [B70), 3-(4-chloro-5-cyclopentyloxy-2-fluorophenyl)-5-iso-propylidene-1,3-oxazolidine-2,4-dione]: the CYPSE % control was 50% in the data set with Cyperus serotinus [1] (150 g of ai/ha) and 65% in the data set on Cyperus serotinus [1] (450 g of ai/ha). The ORYSW % damage in the data set on Oryza sativa [2] (150 g of ai/ha) and in the data set on Oryza sativa [2] (450 g of ai/ha) was 0% each time.
In the data set on Ipomoea hederacea (420 g of ai/ha), `O=C(O)COc1nc(Cl)c(Cl)cc1Cl` [B40), [(3,5,6-trichloro-2-pyridinyl)oxy]acetic acid] registered an IPOHE % control of 65%. In addition, the ORYSW % damage in the data set on Oryza sativa [3] (420 g of ai/ha) came to 20%.
With `C[C@@H](Oc1ccc(Oc2nc3ccc(Cl)cc3o2)cc1)C(=O)O` [B20), (R)-2-[4-(6-chloro-1,3-benzoxazol-2-yloxy)phenoxy]-propionic acid], the ECHCG % control with Echinochloa crusgalli [4] (10 g of ai/ha) amounted to 0%; in the data set on Echinochloa crusgalli [4] (20 g of ai/ha) it was 0%; in the data set on Echinochloa crusgalli [5] (30 g of ai/ha), 75%. Besides, the ORYSW % damage in the data set on Oryza sativa [6] (30 g of ai/ha), in the data set on Oryza sativa [7] (10 g of ai/ha) and in the data set with Oryza sativa [7] (20 g of ai/ha) was 0% in each case.
For `COc1c(Cl)ccc(Cl)c1C(=O)O` [B31), 3,6-dichloro-o-anisic acid], the POLCO % control in the data set with Polygonum convolvulus (240 g of ai/ha) amounted to 45%; in the data set with Polygonum convolvulus (480 g of ai/ha), 80%. Moreover, the figures for the ORYSW % damage with Oryza sativa [8] (240 g of ai/ha) and in the data set on Oryza sativa [8] (480 g of ai/ha) were 8% and 10%, respectively.
As for `COc1nc(C)nc(NC(=O)NS(=O)(=O)c2ccccc2C(=O)O)n1` [B57), 2-(4-methoxy-6-methyl-1,3,5-triazin-2-ylcarbamoyl-sulfamoyl)benzoic acid], the COMBE % control with Commelina benghalensis (1 g of ai/ha) worked out at 20%; in the data set with Commelina benghalensis (2 g of ai/ha) it was 68%. Moreover, the ORYSW % damage in the data set with Oryza sativa [9] (1 g of ai/ha) and in the data set on Oryza sativa [9] (2 g of ai/ha) was 0% each time.
`CCC1(CC2(c3cccc(Cl)c3)CO2)C(=O)c2ccccc2C1=O` (racemic) [B71), (RS)-2-[2-(3-chlorophenyl)-2,3-epoxypropyl]-2-ethyl-indane-1,3-dione] had a CYPSE % control in the data set with Cyperus serotinus [10] (150 g of ai/ha) of 55%. This compound also registered an ORYSW % damage in the data set on Oryza sativa [11] (in vivo) of 4%.
As for `COCCOc1ccccc1S(=O)(=O)NC(=O)Nc1nc(OC)nc(OC)n1` [B60), N-[[(4,6-dimethoxy-1,3,5-triazin-2-yl)amino]carbonyl]-2-(2-methoxyethoxy)benzolsulfonamide], the CYPSE % control in the data set with Cyperus serotinus [12] (15 g of ai/ha) is recorded as 0%; in the data set on Cyperus serotinus [12] (30 g of ai/ha) it was 15%; with Cyperus serotinus [12] (60 g of ai/ha), 15%. In addition, the ORYSW % damage with Oryza sativa [13] (15 g of ai/ha) is 0%; in the data set on Oryza sativa [13] (30 g of ai/ha) it was 0%; in the data set on Oryza sativa [13] (60 g of ai/ha), 5%.
In the case of `CN(C(=O)COc1nc2ccccc2s1)c1ccccc1` [B5), 2-(2-benzothiazolyloxy)-N-methyl-N-phenylacetamide], the SAGPY % control with Sagittaria pygmaea (600 g of ai/ha), in the data set on Sagittaria pygmaea (1200 g of ai/ha) and in the data set with Sagittaria pygmaea (2400 g of ai/ha) was 0% throughout.
`COc1cccc(N(C)C(=S)Oc2cccc(C(C)(C)C)c2)n1` [B12), O-[3-(1,1-dimethylethyl)phenyl](6-methoxy-2-pyridinyl)methylcarbamothioate] displayed a CYPSE % control in the data set on Cyperus serotinus [10] (600 g of ai/ha) of 65%. Moreover, the ORYSW % damage in the data set on Oryza sativa [11] (600 g of ai/ha, field trial, 28 days after application) was found to be 3%.
Turning to `CCN(CC)C(=O)SCc1ccc(Cl)cc1` [B11), S-[(4-chlorophenyl)methyl]diethylcarbamothioate], the IPOHE % control in the data set with Ipomoea hederacea (3300 g of ai/ha) is given as 43%. The compound further had an ORYSW % damage in the data set on Oryza sativa [3] (3300 g of ai/ha) of 3%.
With `CCSC(=O)N1CCCCCC1` [B10), S-ethyl hexahydro-1H-azepin-1-carbothioate], the IPOHE % control in the data set on Ipomoea hederacea (4480 g of ai/ha) is reported as 55%. The ORYSW % damage in the data set on Oryza sativa [3] (4480 g of ai/ha) worked out at 0%.
For the compound `CSC(=O)c1c(C(F)F)nc(C(F)(F)F)c(C(=O)SC)c1CC(C)C` [B24), S,S′-dimethyl-2-(difluoromethyl)-4-(2-methylpropyl)-6-(trifluoromethyl)-3,5-pyridindicarbothioate], the CYPSE % control with Cyperus serotinus [10] (60 g of ai/ha) came to 60%. The ORYSW % damage with Oryza sativa [11] (in vivo) is 6%.
Turning to `CCOc1ccccc1OS(=O)(=O)NC(=O)Nc1nc(OC)cc(OC)n1` [B63a), ethoxysulfuron], the ECHCO % control in the data set with ECHCO (45 g of ai/ha) and in the data set with ECHCO (60 g of ai/ha) was 0% in each case. Moreover, the ELEIN % control in the data set on Eleusine indica (45 g of ai/ha) and with Eleusine indica (60 g of ai/ha) was 0% throughout. The LEFFI % control in the data set on Leptochloa filiformis (45 g of ai/ha) and in the data set on Leptochloa filiformis (60 g of ai/ha) was 0% throughout. The CYPIR % control in the data set on Cyperus irria (22.5 g of ai/ha) was 60%; with Cyperus irria (45 g of ai/ha), 95%. The ECHCG % control in the data set with Echinochloa crusgalli [5] (5 g of ai/ha) and in the data set on Echinochloa crusgalli [5] (10 g of ai/ha) was 7% each time. Moreover, the ORYSW % damage is 7% in the data set on Oryza sativa [6] (5 g of ai/ha); 7% in the data set on Oryza sativa [6] (10 g of ai/ha); 10% in the data set on Oryza sativa [14] (45 g of ai/ha); 10% in the data set on Oryza sativa [14] (60 g of ai/ha); 10% in the data set with Oryza sativa [15] (45 g of ai/ha); 10% with Oryza sativa [15] (60 g of ai/ha). The ORYSW % damage in the data set with Oryza sativa [16] (22.5 g of ai/ha) and with Oryza sativa [16] (45 g of ai/ha) was 0% throughout.
Turning to `C#CCN(C)c1c(C#N)cnn1-c1nn2c(c1Cl)CCCC2` [B33b)], the values for the CYPSE % control in the data set on Cyperus serotinus [1] (100 g of ai/ha), in the data set with Cyperus serotinus [1] (200 g of ai/ha) and in the data set with Cyperus serotinus [1] (400 g of ai/ha) were 40%, 50% and 80%, respectively. The ORYSW % damage in the data set with Oryza sativa [2] (100 g of ai/ha) was found to be 6%; in the data set on Oryza sativa [2] (200 g of ai/ha), 8%; in the data set on Oryza sativa [2] (400 g of ai/ha) it was 12%.
Take `CC(C)(SC(=O)N1CCCCC1)c1ccccc1` [B9), S-(1-methyl-1-phenylethyl)1-piperidincarbothioate]: the CYPSE % control in the data set on Cyperus serotinus [10] (3000 g of ai/ha) worked out at 45%. For the same compound, in the data set on Oryza sativa [11] (3000 g of ai/ha, field trial, 28 days after application), the ORYSW % damage is listed as 5%.
